Laboratory results: patent publication US20210196607A1 (HESED BIO CO., LTD., priority 2017, published 2021)

Legend:
tyrosinase [1] = test: Tyrosinase protein and mRNA amount in MSH-treated B16F10 cells; type: cell-based, mouse
Source text: Antibodies were purchased from respective manufacturers. Tyrosinase, 14-3-3ζ, LAMIN B (Santa Cruz), MITF (Abcam), phospho-MITF (Sigma), ERK, phospho-ERK (Cell Signaling), ACTIN (MPBIO), and GAPDH (Bethyl) were used.
(§1) Total RNA was extracted from each group of cells using a TRI reagent (Molecular Research Center). Extracted RNA was reverse transcribed using an ImProm™ Reverse Transcription System (Promega), followed by measurement using a StepOnePlus™ Real-Time PCR System (Applied Biosystems).

[2] = tested on: heat shock protein 70 (HSP70); test: Expression of heat shock protein 70 under heat stress; type: cell-based, mouse; settings: B16F10 cells
Description: Total protein was extracted from the cells using a THE buffer, and then the amount thereof was measured using a Bradford reagent. In addition, proteins were separated by SDS-PAGE and identified using antibodies, followed by quantitative analysis. Antibodies were purchased from respective manufacturers, and HSP70 (Santa Cruz) and actin (MPBIO) were used.
as §1

[3] = tested on: B16F10 mouse melanoma cells; test: Measuring amount of melanin; type: cell-based
Description: B16F10 mouse melanoma cells were seeded into a 6-well cell culture plate at a density of 1×10^5/well. […] The obtained cells were disrupted and then centrifuged to obtain a cell precipitate, and 1 N NaOH containing 10% DMSO was added thereto. Thereafter, the resulting precipitate was allowed to react at 60° C. for 1 hour, and absorbance at 405 nm was measured.

[4] = tested on: estrogen receptor signaling pathway; test: mRNA of estrogen receptor target genes; type: cell-based; settings: HEK 293A cells (FIG. 5D)
Source text: as §1

cells = test: Cytotoxicity experiment (MTT experiment); type: cell-based
Description: 1-1: Cell Culture HEK 293A and B16F10 cells used, Dulbecco's Modified Eagle's Medium (DMEM) containing 10% fetal bovine serum and 1% penicillin/streptomycin as a nutrient source, and were incubated in an incubator maintained at 37° C. under 5% CO2.
This is an experiment for measuring the number of living cells through conversion of 3-(4,5-dimethyl-thiazol-2-yl)-2,5-diphenyl tetrazolium bromide (MTT) into formazan with a purple color, by reduction in cells. Cells were seeded into a 96-well cell culture plate at a density of 3×10^3. […] Thereafter, the culture medium was removed, and a solvent for dissolving crystallized formazan was added to dissolve the sample, and the absorbance at 570 nm of the dissolved sample was measured.

[5] = molecular target: T1, ERα ligand-binding domain (Homo sapiens, UniProt P03372); test: Estrogen receptor reporter (GAL4 luciferase) experiment; type: cell-based
T1 construct: expressed in transfected cells; host or cells: HEK 293A cells
Description: To deliver a DNA plasmid into HEK 293A cells, a microporator (Invitrogen/Neon® Transfection System) was used. At one time, 1 μg of a reporter plasmid was delivered into 1 million cells. The DNA-delivered cells were cultured in a general culture medium. The activities of Renilla and Firefly luciferases were measured using a Dual-Luciferase® Reporter Assay System (Promega). To measure the activity of an estrogen receptor (ER) reporter, a system, in which, when a specific material binds to the ER ligand domain, GAL4 binds to a specific DNA sequence, resulting in expression of the Firefly luciferase, was used, and the Renilla luciferase was delivered together to calibrate DNA transfer efficiency. The activity of the estrogen receptor reporter was determined by dividing a value of the Firefly luciferase by a value of the Renilla luciferase. […] When HEK 293A cells to which reporter DNAs were delivered were treated with 50 μM of the extract, the expression of the luciferases was nearly 3.5 times higher than that of the control (see FIG. 5B).

tyrosinase [6] = molecular target: T2, tyrosinase (Mus musculus, UniProt P11344); test: Degree of tyrosinase activity at cellular level; type: cell-based; settings: B16F10 cells
T2 construct: The obtained cells were disrupted and then centrifuged to separate a supernatant; endogenous in cells; host or cells: B16F10 mouse melanoma cells, stimulated with melanocyte stimulating hormone
T2 sequence (P11344 19-533): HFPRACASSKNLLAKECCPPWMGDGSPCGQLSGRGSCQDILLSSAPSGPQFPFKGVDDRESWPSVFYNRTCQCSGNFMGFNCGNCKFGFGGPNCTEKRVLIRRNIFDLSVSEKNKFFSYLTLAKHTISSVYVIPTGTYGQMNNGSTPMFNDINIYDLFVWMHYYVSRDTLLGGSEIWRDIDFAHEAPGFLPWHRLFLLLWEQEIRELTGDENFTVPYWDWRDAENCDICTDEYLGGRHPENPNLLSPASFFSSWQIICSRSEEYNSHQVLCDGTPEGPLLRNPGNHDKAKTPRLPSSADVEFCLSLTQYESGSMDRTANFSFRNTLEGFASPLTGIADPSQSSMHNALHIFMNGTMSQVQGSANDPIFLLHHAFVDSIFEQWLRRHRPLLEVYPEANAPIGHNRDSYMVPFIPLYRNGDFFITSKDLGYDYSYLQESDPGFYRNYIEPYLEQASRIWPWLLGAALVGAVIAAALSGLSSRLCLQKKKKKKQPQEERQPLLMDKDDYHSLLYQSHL
Description: B16F10 mouse melanoma cells were seeded into a 6-well cell culture plate at a density of 1×10^5/well. […] The obtained cells were disrupted and then centrifuged to separate a supernatant. The protein concentration of the supernatant was measured, and 50 μg of protein per sample was standardized into a volume of 50 μl and placed on a 96-well plate. Then, 100 μl of 0.1% L-DOPA was added as a reaction substrate to each sample and allowed to react at 37° C. for 1 hour, and then absorbance at 475 nm was measured.

[7] = 100 nM melanocyte stimulating hormone for 48 hours
[8] = increasing amount of 8-methoxybutin (FIG. 2D)

T1 sequence (P03372 311-547 limits assumed): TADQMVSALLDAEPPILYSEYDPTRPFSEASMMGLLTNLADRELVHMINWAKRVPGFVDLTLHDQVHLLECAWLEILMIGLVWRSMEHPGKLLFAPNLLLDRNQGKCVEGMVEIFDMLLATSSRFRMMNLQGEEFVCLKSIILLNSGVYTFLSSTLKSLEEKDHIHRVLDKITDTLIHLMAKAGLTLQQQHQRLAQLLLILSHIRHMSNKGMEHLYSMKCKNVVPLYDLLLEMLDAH
T1 sequence (P04386 1-147 partner limits assumed): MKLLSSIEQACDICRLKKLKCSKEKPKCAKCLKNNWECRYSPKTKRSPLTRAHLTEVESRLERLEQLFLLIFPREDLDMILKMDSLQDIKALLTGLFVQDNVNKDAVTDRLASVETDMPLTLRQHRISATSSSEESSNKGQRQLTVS

COc1c(O)ccc2c1OC(c1ccc(O)c(O)c1)CC2=O (centres unmarked) [8-methoxybutin, 2-(3,4-dihydroxyphenyl)-7-hydroxy-8-methoxy-2,3-dihydro-4H-1-benzopyran-4-one]
amount of tyrosinase protein (tyrosinase [1]; B16F10 cells treated with melanocyte stimulating hormone (FIG. 2B)): remarkable decrease
tyrosinase mRNA level (tyrosinase [1]; B16F10 cells treated with melanocyte stimulating hormone (FIG. 2C)): confirmed at an mRNA level
amount of tyrosinase protein with increasing amount of compound (tyrosinase [1]; B16F10 cells, increasing amount of 8-methoxybutin (FIG. 2E)): reduced in proportion to the amount of 8-methoxybutin
amount of heat shock protein 70 mRNA compared to the control ([2]; heat stress (FIG. 3B)): larger amount
amount of heat shock protein 70 (HSP70) compared to a control ([2]; heat-applied condition 42° C. for 1 hour, DMSO control (FIG. 3A)): increased at least three times
decrease in melanin synthesis amount [3, 7]: ≥ 50%
melanin synthesis with increasing amount of compound [3, 8]: in proportion to the amount of 8-methoxybutin
amount of mRNA of target genes [4]: increased
cell survival rate (cells; 24 hours treatment, high as well as low concentration): about 100%
cytotoxicity (cells; high concentration, 100 μM): cytotoxicity was hardly observed
expression of the luciferases relative to the control ([5]; HEK 293A cells with reporter DNAs, 50 μM (FIG. 5B)): ~3.5 times
expression of luciferases depending on concentration ([5]; HEK 293A cells, concentration increased from 10 μM (FIG. 5C)): statistically significant increase
decrease in tyrosinase activity (tyrosinase [6]; [7]): ≥ 110%
tyrosinase activity with increasing amount of compound (tyrosinase [6]; [8]): in proportion to the amount of 8-methoxybutin
